Results published in patent US20230069886A1, “AROMATIC SULPHONAMIDES DERIVATIVES THAT INHIBITS PDI A3, THEIR SYNTHESIS AND USE” (Uniwersytet Jagiellonski, priority 2020, published 2023).

Biological target: T1, PDI A3 (Homo sapiens, UniProt P30101)
T1 construct: purchased Mybiosource; host or cells: E. coli
T1 sequence (P30101 25-505): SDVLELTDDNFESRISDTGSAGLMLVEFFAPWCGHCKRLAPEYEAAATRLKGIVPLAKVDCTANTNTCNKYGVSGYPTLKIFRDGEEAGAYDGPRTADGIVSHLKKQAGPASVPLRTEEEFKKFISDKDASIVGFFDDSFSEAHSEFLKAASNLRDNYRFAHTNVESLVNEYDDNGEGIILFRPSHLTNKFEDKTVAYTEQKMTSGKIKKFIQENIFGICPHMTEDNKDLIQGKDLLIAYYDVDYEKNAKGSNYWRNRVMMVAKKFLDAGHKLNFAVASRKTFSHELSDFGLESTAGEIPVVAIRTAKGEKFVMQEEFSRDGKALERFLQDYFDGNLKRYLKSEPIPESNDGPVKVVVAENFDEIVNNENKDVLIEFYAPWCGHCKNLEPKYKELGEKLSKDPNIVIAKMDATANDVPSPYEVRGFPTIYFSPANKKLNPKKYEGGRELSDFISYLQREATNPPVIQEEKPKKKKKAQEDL
Experiment: PDI A3 inhibition, insulin turbidimetric assay
Format: biochemical
Conditions: 10 ug/ml PDI A3, incubated 60 min at 37° C., turbidity at 650 nm; read-out: Inhibition of PDI A3 (EC 50)
Experimental: The inhibitory effects compounds of invention on activity of PDIA3 was assess based on the insulin turbidimetric assay. Enzymatic activity of PDIA3 was confirmed by measuring the turbidity increase at 650 nm due to insulin reduction. The assay mixture was prepared by addition 10 ug/ml PDI A3 (E. coli recombinant protein; Mybiosource), […] phosphate buffer (pH7.6), 1 mM EDTA, 0.087 mM DTT and with or without tested compound and was incubated for 60 min, at 37° C. Reaction was started by addition of insulin and DTT. Final concentration of insulin and DTT in assay mixture were 0.15 mMv and 0.174 mMv, respectively. Turbidity was detected at 650 nm against reference samples without PDJs. The measurements were performed at 650 nm using 120-s recordings.

SMILES | EC50
COC(=O)C1CN1S(=O)(=O)c1ccc(C)cc1 (stereo not shown) [Compound C-3161, Methyl 1-(p-tolylsulfonyl)aziridine-2-carboxylate] | 27 µM
COC(=O)C1CN1S(=O)(=O)c1ccc([N+](=O)[O-])cc1 (stereo not shown) [Compound C-3212, Methyl 1-(4-nitrophenyl)sulfonylaziridine-2-carboxylate] | 32 µM
Cc1ccc(S(=O)(=O)N2CC2C(N)=O)cc1 (stereo not shown) [Compound C-3220, 1-(p-Tolylsulfonyl)aziridine-2-carboxamide] | 22 µM
COC(=O)C1CN1S(=O)(=O)c1ccc(C(F)(F)F)cc1 (stereo not shown) [Compound C-3256, Methyl 1-[4-(trifluoromethyl)phenyl]sulfonylaziridine-2-carboxylate] | > 200 µM
CC(=O)C1CN1S(=O)(=O)c1ccc(C)cc1 (stereo not shown) [Compound C-3263, 1-[1-(p-Tolylsulfonyl)aziridin-2-yl]ethanone] | 98 µM
CCCCCCCCCCCCc1ccc(S(=O)(=O)N2CC2C(=O)OC)cc1 (stereo not shown) [Compound C-3270, Methyl 1-(4-dodecylphenyl)sulfonylaziridine-2-carboxylate] | > 200 µM
CCCCc1ccc(S(=O)(=O)N2CC2C(C)=O)cc1 (stereo not shown) [Compound C-3272, 1-[1-(4-Butylphenyl)sulfonylaziridin-2-yl]ethanone] | 43 µM
COC(=O)C1CN1S(=O)(=O)c1ccc(C)cc1F (stereo not shown) [Compound C-3297, Methyl 1-(2-fluoro-4-methyl-phenyl)sulfonylaziridine-2-carboxylate] | > 200 µM
COC(=O)C1CN1S(=O)(=O)c1cccc(C)c1 (stereo not shown) [Compound C-3303, Methyl 1-(m-tolylsulfonyl)aziridine-2-carboxylate] | > 200 µM
CN(C)C(=O)C1CN1S(=O)(=O)c1ccc(N(C)C)cc1 (stereo not shown) [Compound C-3357, 1-[4-(Dimethylamino)phenyl]sulfonyl-N,N-dimethyl-aziridine-2-carboxamide] | > 200 µM
COC(=O)C1CN1S(=O)(=O)c1cccnc1 (stereo not shown) [Compound C-3559, Methyl 1-(3-pyridylsulfonyl)aziridine-2-carboxylate] | 18.6 µM
COC(=O)[C@H]1CN1S(=O)(=O)c1cccc2cc(N(C)C)ccc12 (stereo partly drawn) [Compound C-3570, Methyl (2R)-1-[[6-(dimethylamino)-1-naphthyl]sulfonyl]aziridine-2-carboxylate] | 68.4 µM

The next lines start with the values.

EC50 | SMILES
> 200 µM | CCCCCc1ccc(S(=O)(=O)N2CC2C(=O)OC)cc1 (stereo not shown) [Compound C-3281, Methyl 1-(4-pentylphenyl)sulfonylaziridine-2-carboxylate]
> 200 µM | COC(=O)C1CN1S(=O)(=O)c1cccc(C(F)(F)F)c1 (stereo not shown) [Compound C-3305, Methyl 1-[3-(trifluoromethyl)phenyl]sulfonylaziridine-2-carboxylate]
90 µM | COC(=O)C1CN1S(=O)(=O)c1cccc2ccccc12 (stereo not shown) [Compound C-3311, Methyl 1-(1-naphthylsulfonyl)aziridine-2-carboxylate]
24 µM | Cc1ccc(S(=O)(=O)N2CC2C#N)cc1 (stereo not shown) [Compound C-3314, 1-(p-Tolylsulfonyl)aziridine-2-carbonitrile]
48 µM | COC(=O)C1CN1S(=O)(=O)c1ccc2[nH]c(=O)ccc2c1 (stereo not shown) [Compound C-3350, Methyl 1-[(2-oxo-1H-quinolin-6-yl)sulfonyl]aziridine-2-carboxylate]
143 µM | COC(=O)C1CN1S(=O)(=O)c1ccc(F)cc1F (stereo not shown) [Compound C-3353, Methyl 1-(2,4-difluorophenyl)sulfonylaziridine-2-carboxylate]
61 µM | COC(=O)C1CN1S(=O)(=O)c1ccc2oc(=O)ccc2c1 (stereo not shown) [Compound C-3355, Methyl 1-(2-oxochromen-6-yl)sulfonylaziridine-2-carboxylate]
4.3 µM | CN(C)C(=O)C1CN1S(=O)(=O)c1cccc2cc(N(C)C)ccc12 (stereo not shown) [Compound C-3377, 1-[[6-(Dimethylamino)-1-naphthyl]sulfonyl]-N,N-dimethylaziridine-2-carboxamide]
37 µM | CCCCCCc1ccc(S(=O)(=O)N2CC2C(=O)NC)cc1 (stereo not shown) [Compound C-3380, 1-(4-Hexylphenyl)sulfonyl-N-methyl-aziridine-2-carboxamide]
11.7 µM | CN(C)C(=O)C1CN1S(=O)(=O)c1ccc(C2CCCCC2)cc1 (stereo not shown) [Compound C-3384, 1-(4-Cyclohexylphenyl)sulfonyl-N,N-dimethyl-aziridine-2-carboxamide]
11.1 µM | CN(C)C(=O)C1CN1S(=O)(=O)c1ccc(N(C)C)c2ccccc12 (stereo not shown) [Compound C-3385, 1-[[4-(Dimethylamino)-1-naphthyl]sulfonyl]-N,N-dimethylaziridine-2-carboxamide]
27 µM | CNc1ccc2cc(S(=O)(=O)N3CC3C(=O)OC)ccc2c1Cl (stereo not shown) [Compound C-3393, Methyl 1-[[5-chloro-6-(methylamino)-2-naphthyl]sulfonyl]aziridine-2-carboxylate]
10.5 µM | CN(C)C(=O)C1CN1S(=O)(=O)c1ccc2cc(N(C)C)ccc2c1 (stereo not shown) [Compound C-3398, 1-[[6-(Dimethylamino)-2-naphthyl]sulfonyl]-N,N-dimethylaziridine-2-carboxamide]
24 µM | CN(C)C(=O)C1CN1S(=O)(=O)c1ccc(F)cc1F (stereo not shown) [Compound C-3403, 1-(2,4-Difluorophenyl)sulfonyl-N,N-dimethyl-aziridine-2-carboxamide]
102 µM | CCCCCCc1ccc(S(=O)(=O)N2CC2C(=O)N2CCCC2)cc1 (stereo not shown) [Compound C-3511, [1-(4-Hexylphenyl)sulfonylaziridin-2-yl]-pyrrolidin-1-yl-methanone]
9.3 µM | NC(=O)C1CN1S(=O)(=O)c1ccccc1 (stereo not shown) [Compound C-3532, 1-(Benzenesulfonyl)aziridine-2-carboxamide]
6.8 µM | COC(=O)[C@@H]1CN1S(=O)(=O)c1ccc(C)cc1 (stereo partly drawn) [Compound C-3535, Methyl (2S)-1-(p-tolylsulfonyl)aziridine-2-carboxylate]
30 µM | CCOC(=O)C1CN1S(=O)(=O)c1ccc(C)cc1 (stereo not shown) [Compound C-3537, Ethyl 1-(p-tolylsulfonyl)aziridine-2-carboxylate]
5.3 µM | COC(=O)[C@@H]1CN1S(=O)(=O)c1cccc2cc(N(C)C)ccc12 (stereo partly drawn) [Compound C-3548, Methyl (2S)-1-[[6-(dimethylamino)-1-naphthyl]sulfonyl]aziridine-2-carboxylate]
56 µM | NC(=O)C1CN1S(=O)(=O)c1cccnc1 (stereo not shown) [Compound C-3562, 1-(3-pyridylsulfonyl)aziridine-2-carboxamide]
29 µM | CC(C)(C)c1ccc(S(=O)(=O)N2CC2C(N)=O)cc1 (stereo not shown) [Compound C-3591, 1-(4-tert-Butylphenyl)sulfonylaziridine-2-carboxamide]

System: MCF-7
Experiment: MTT antiproliferative assay, 48 h, MCF-7
Format: cell-based, human
Conditions: Homo sapiens, MCF7, 48-hour exposition, read-out: Cytotoxicity, IC50, μM MCF-7
Experimental: (§1) Anticancer activity of compounds of invention, PDI A3-inhibitors has been tested in vitro in classical antiproliferative assay in various cancer cells lines. Monolayer tumor cell lines MDA-MB-231 (human mammary breast adenocarcinoma), MCF-7 (human breast adenocarcinoma, estrogen-positive), HT-1080 (human fibrosarcoma) and Caco-2 (human colon adenocarcinoma) were cultured in standard medium DMEM (Dulbecco's modified Eagle's medium) (“Sigma”) supplemented with 10% foetal bovine serum (“Sigma”). About 2000-4000 cells per well (depending on line nature) were placed in 96-well plates and after 24 h compounds were added to the wells. Untreated cells were used as a control. The plates were incubated for 48 h, 37° C., 5% CO2. The number of surviving cells was determined using 3-(4,5-dimethylthiazol-2-yl)-2,5-diphenyltetrazolinium bromide (MTT). MTT-test: after incubating culture medium was removed and 200 μL fresh medium with 20 μL MTT (2 mg/mL in HBSS) was added in each well of the plate. After incubation (3 hr., 37° C., 5% CO2), the medium with MTT was removed and 200 μL DMSO were added at once to each sample. The samples were tested at 540 nm on Thermo Scientific Multiskan EX microplate photometer. The half-maximal inhibitory concentration (IC50) of each compound was calculated using Graph Pad Prism® 3.0.

SMILES | IC50
CCCCCCc1ccc(S(=O)(=O)N2CC2C(=O)OC)cc1 (stereo not shown) [Compound C-3287, Methyl 1-(4-hexylphenyl)sulfonylaziridine-2-calboxylate] | 123 ± 17 µM
COC(=O)C1CN1S(=O)(=O)c1ccc(C(C)(C)C)cc1 (stereo not shown) [Compound C-3290, Methyl 1-(4-tert-butylphenyl)sulfonylaziridine-2-carboxylate] | 29 ± 4 µM
CN(C)C(=O)C1CN1S(=O)(=O)c1cccc2cc(N(C)C)ccc12 (stereo not shown) [Compound C-3377, 1-[[6-(Dimethylamino)-1-naphthyl]sulfonyl]-N,N-dimethylaziridine-2-carboxamide] | 4.8 ± 0.1 µM

System: not given
Experiment: not given
Conditions: not given

melting point | SMILES
106 to 108 °C | COC(=O)C1CN1S(=O)(=O)c1ccc([N+](=O)[O-])cc1 (stereo not shown) [Compound C-3212, Methyl 1-(4-nitrophenyl)sulfonylaziridine-2-carboxylate]
139 to 141 °C | NC(=O)C1CN1S(=O)(=O)c1ccc(N)cc1 (stereo not shown) [Compound C-3218, 1-(4-Aminophenyl)sulfonylaziridine-2-carboxamide]
139 to 141 °C | COC(=O)C1CN1S(=O)(=O)c1ccc2[nH]c(=O)ccc2c1 (stereo not shown) [Compound C-3350, Methyl 1-[(2-oxo-1H-quinolin-6-yl)sulfonyl]aziridine-2-carboxylate]
42 to 44 °C | COC(=O)C1CN1S(=O)(=O)c1ccc2oc(=O)ccc2c1 (stereo not shown) [Compound C-3355, Methyl 1-(2-oxochromen-6-yl)sulfonylaziridine-2-carboxylate]
170 to 172 °C | CNc1ccc2cc(S(=O)(=O)N3CC3C(=O)OC)ccc2c1Cl (stereo not shown) [Compound C-3393, Methyl 1-[[5-chloro-6-(methylamino)-2-naphthyl]sulfonyl]aziridine-2-carboxylate]
147 to 149 °C | NC(=O)C1CN1S(=O)(=O)c1cccnc1 (stereo not shown) [Compound C-3562, 1-(3-pyridylsulfonyl)aziridine-2-carboxamide]

System: MDA-MB-231
Experiment: MTT antiproliferative assay, 48 h, MDA-MB-231
Format: cell-based, human
Conditions: Homo sapiens, MDA-MB-231, 48-hour exposition, read-out: Cytotoxicity, IC50, μM MDA-MB-231
Experimental: as §1

SMILES | IC50
COC(=O)C1CN1S(=O)(=O)c1ccccc1C (stereo not shown) [Compound C-3320, Methyl 1-(o-tolylsulfonyl)aziridine-2-carboxylate] | 380 ± 15 µM
